Data taken from PubChem BioAssay (NCI).
Several values for one entry are separate records, joined by “and”; a condition that tells them apart may be missing. Equal values may be shown once.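 Dose response: 5 concentrations. Exposure: 48 h. Format: 96-well plates. Endpoint: linear interpolation; highest concentration if not reached. GI50 is the concentration that inhibits growth by half. At the TGI there is no net growth.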 Activity calls are given as the source filed them. Rule as the data show it: active = GI50 below about 0.43 µM; inactive = the rest.

Legend:
Assay in all cases: growth of human tumour cells (NCI), 48 h
[1] = system: MCF7 breast
[2] = system: NCI/ADR-RES ovarian
[3] = system: PC-3 prostate
[4] = system: T-47D breast
[5] = system: DU-145 prostate
[6] = system: DMS 273 small cell lung
[7] = system: DMS 114 small cell lung
[8] = system: DLD-1 colon

Row | Structure (SMILES) | TGI [1] | TGI [2] | GI50 [3] | TGI [3] | TGI [4] | TGI [5] | outcome [5] | GI50 [1] | GI50 [2] | GI50 [4] | GI50 [5] | TGI [6] | TGI [7] | TGI [8]
1 | COc1ccc(C(=O)C#Cc2cnc(OC)nc2OC)cc1 | 2.54 µM | 79000 µM | 27800 µM | 2.58 µM | 61400 µM | 4.86 µM | inactive |  |  |  |  |  |  | 
2 | Cc1ccc(C(=O)N(CCCN)C(c2oc3cc(Cl)ccc3c(=O)c2Cc2ccccc2)C(C)C)cc1 (stereo unspecified) | 1.39 µM | 1.17 µM | < 0.01 µM | 2.03 µM | 2.02 µM |  |  | < 0.01 µM | 0.11 µM | < 0.01 µM | < 0.01 µM |  |  | 
3 | Cn1c2ccccc2c2ccc3c(c21)C(=O)c1ccccc1C3=O |  | 45.4 µM |  | 33.2 µM | 49.8 µM | > 100 µM |  |  |  |  |  |  |  | 
4 | O=C(O)C(CS)Nc1c2ccccc2nc2ccccc12 (stereo unspecified) |  |  |  |  |  |  |  |  |  |  |  | > 100 µM | > 100 µM | > 100 µM
5 | Nc1nc(N(Cc2ccccc2)c2ccccc2)c2cn[nH]c2n1 | > 100 µM |  | 4.56 µM | > 100 µM | > 100 µM | > 100 µM |  | 4.34 µM |  | 4.34 µM | 4.57 µM |  |  | 
6 | Nc1nc2c(nnn2C2CC(O)C(CO)O2)c(=O)[nH]1 (stereo unspecified) | > 100 µM | > 100 µM | 2.55 µM | > 100 µM | > 65.1 µM | > 100 µM |  | 4.21 µM | 3.08 µM | 4.59 µM | 1.45 µM |  |  | 
7 | COC(=O)Nc1nc2ccc(Oc3ccc(NC(=O)Nc4cc(C(F)(F)F)ccc4F)cc3)cc2s1 | > 25 µM | > 25 µM | 11.5 µM | > 25 µM | > 25 µM | > 25 µM |  | > 19.6 µM | 14.5 µM | > 18 µM | 10.6 µM |  |  | 
8 | CC1(C)OC2=C(CC1Br)C(=O)C(=O)c1ccccc12 (stereo unspecified) | 3.74 µM | 5.22 µM | 2.13 µM | 4.95 µM | 4.72 µM | 3.05 µM |  | 1.68 µM | 2.26 µM | 2.03 µM | 1.67 µM |  |  | 
9 | CS(=O)(=O)CCNCc1ccc(-c2ccc3ncnc(Nc4ccc(OCc5ccccc5)cc4)c3c2)o1 | > 17.7 µM | > 25 µM | 7.23 µM | > 23.7 µM | > 25 µM | > 25 µM |  | 2.84 µM | 6.71 µM | 4.01 µM | 5.3 µM |  |  | 
10 | O=C1C(Cl)=C(NCCN2CCOCC2)C(=O)c2ncccc21 | 3.4 µM and 3.31 µM | 30.8 µM | 4.26 µM | 18.7 µM | 5.74 µM and 4.49 µM | 3.11 µM and 3.14 µM |  | 1.28 µM | 4.6 µM | 1.83 µM |  |  |  | 
11 | C/C(CC(=O)Nc1cc(C)ccc1C)=N\NC(=O)c1ccncc1 |  |  |  |  |  |  |  |  |  |  |  |  |  | > 100 µM
12 | O=c1cc(-c2ccccc2)oc2cc(OC/C(=N/O)c3ccccc3)ccc12 |  | > 50 µM | 9.4 µM | 38.4 µM | > 50 µM | > 50 µM |  |  | 19.8 µM | > 50 µM | 25.1 µM |  |  | 
13 | CCc1ccccc1NC(=O)C1=C(C)NC(C)=C(C(=O)Nc2ccccc2CC)C1c1ccc2c(c1)OCO2 |  |  |  |  |  |  |  |  |  |  |  |  | > 100 µM | > 100 µM
14 | O=C1c2ccccc2C(=O)N1CCc1ncc[nH]1 | > 100 µM | > 100 µM |  | > 100 µM | > 100 µM | > 100 µM |  |  |  |  |  |  |  | 
